# Tests used:
# [1] = target: T1, G12D-mutant human KRAS (amino acid residues 1-188) (Homo sapiens, UniProt P01116, G12D); assay: KRAS Binding Disruption Assay (AlphaScreen; biotinylated KRpep-2d analogue or RAF1-RBD), G12D; details: KRAS G12D; geometric mean; read-out: KRAS GMean IC50 (uM) MUTATION: G12D
# T1 construct: G12D or G12C-mutant human KRAS (amino acid residues 1-188) with FLAG tag; made in house; host or cells: E. coli
# Summary of the method: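 AlphaScreen readout: signal falls as compound displaces biotinylated KRpep-2d analogue or RAF1-RBD from mutant KRAS. Both partners at 5-20 nM, 1 h binding at 25° C, then 10 μg/mL Anti-Flag acceptor and streptavidin donor beads for 1 h. IC50 by nonlinear regression of % inhibition.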
# [2] = target: T2, G12V-mutant human KRAS (amino acid residues 1-188) (Homo sapiens, UniProt P01116, G12V); assay: KRAS Binding Competition Assay (AlphaScreen; biotinylated KRpep-2d analogue), G12V; details: geometric mean, read-out: KRAS GMean IC50 (uM) MUTATION: G12V
# T2 construct: G12V-mutant human KRAS (amino acid residues 1-188) with FLAG tag was purified from E. coli; made in house; host or cells: E. coli
IC50 [1],IC50 [2],SMILES
0.0001 to 10 µM,10 to 100 µM,"CONC(=O)N1[C@@H]2CC[C@H]1CN(c1nc(OCC3CCCN3C)nc3c(F)c(-c4cc(O)cc5ccccc45)ccc13)C2 (stereo partly drawn) [P-0420, (1R,5S)-3-(8-fluoro-7-(3-hydroxynaphthalen-1-yl)-2-((1-methylpyrrolidin-2-yl)methoxy)quinazolin-4-yl)-N-methoxy-3,8-diazabicyclo[3.2.1]octane-8-carboxamide]"
0.0001 to 10 µM,0.0001 to 10 µM,"O=C(N[C@@H]1CCCNC1)N1[C@@H]2CC[C@H]1CN(c1nc(OCC34CCCN3CCC4)nc3cc(-c4cc(O)cc5ccccc45)ccc13)C2 [P-0143, (1R,5S)-3-(7-(3-hydroxynaphthalen-1-yl)-2-((tetrahydro-1H-pyrrolizin-7a(5H)-yl)methoxy)quinazolin-4-yl)-N-((R)-piperidin-3-yl)-3,8-diazabicyclo[3.2.1]octane-8-carboxamide]"
0.0001 to 10 µM,0.0001 to 10 µM,"NS(=O)(=O)CCC(=O)N1[C@@H]2CC[C@H]1CN(c1nc(OCC34CCCN3CCC4)nc3cc(-c4cc(O)cc5ccccc45)ccc13)C2 [P-0093, 3-((1R,5S)-3-(7-(3-hydroxynaphthalen-1-yl)-2-((tetrahydro-1H-pyrrolizin-7a(5H)-yl)methoxy)quinazolin-4-yl)-3,8-diazabicyclo[3.2.1]octan-8-yl)-3-oxopropane-1-sulfonamide]"
100 to 1000 µM,100 to 1000 µM,"CC(=O)Nc1cccc(-c2ccc3c(N4C[C@H]5CC[C@@H](C4)N5)nc(OCC4CCCN4C)nc3c2)c1 (stereo partly drawn) [P-0156, N-(3-(4-((1R,5S)-3,8-diazabicyclo[3.2.1]octan-3-yl)-2-((1-methylpyrrolidin-2-yl)methoxy)quinazolin-7-yl)phenyl)acetamide]"
10 to 100 µM,10 to 100 µM,"CN1CCC[C@H]1COc1nc(N2[C@@H]3CC[C@H]2CN(C(=O)NC2CCN(C4CCCCC4)C2)C3)c2ccc(-c3cc(O)cc4ccccc34)cc2n1 (stereo partly drawn) [P-0266, (1R,5S)-N-(1-cyclohexylpyrrolidin-3-yl)-8-(7-(3-hydroxynaphthalen-1-yl)-2-(((S)-1-methylpyrrolidin-2-yl)methoxy)quinazolin-4-yl)-3,8-diazabicyclo[3.2.1]octane-3-carboxamide]"
0.0001 to 10 µM,0.0001 to 10 µM,"CC(C)(O)CNC(=O)N1[C@@H]2CC[C@H]1CN(c1nc(OCC34CCCN3CCC4)nc3cc(-c4cc(O)cc5ccccc45)ccc13)C2 [P-0141, (1R,5S)-N-(2-hydroxy-2-methylpropyl)-3-(7-(3-hydroxynaphthalen-1-yl)-2-((tetrahydro-1H-pyrrolizin-7a(5H)-yl)methoxy)quinazolin-4-yl)-3,8-diazabicyclo[3.2.1]octane-8-carboxamide]"
0.0001 to 10 µM,0.0001 to 10 µM,"CN(C)c1ccc(CCc2nc(N3C[C@H]4CC[C@@H](C3)N4)c3cc(Cl)c(-c4c(O)cccc4F)c(F)c3n2)cc1 [P-0326, 2-(4-((1R,5S)-3,8-diazabicyclo[3.2.1]octan-3-yl)-6-chloro-2-(4-(dimethylamino)phenethyl)-8-fluoroquinazolin-7-yl)-3-fluorophenol]"
0.0001 to 10 µM,0.0001 to 10 µM,"CN(C)c1cccc(/C=C/c2nc(N3C[C@H]4CC[C@@H](C3)N4)c3cc(Cl)c(-c4c(O)cccc4F)c(F)c3n2)c1 [P-0362, 2-(4-((1R,5S)-3,8-diazabicyclo[3.2.1]octan-3-yl)-6-chloro-2-((E)-3-(dimethylamino)styryl)-8-fluoroquinazolin-7-yl)-3-fluorophenol]"
0.0001 to 10 µM,0.0001 to 10 µM,"CN1CCC[C@H]1COc1nc(N2C[C@H]3CC[C@@H](C2)N3C(=O)CCCn2ccnc2)c2ccc(-c3cc(O)cc4ccccc34)c(F)c2n1 [P-0393, 1-((1R,5S)-3-(8-fluoro-7-(3-hydroxynaphthalen-1-yl)-2-(((S)-1-methylpyrrolidin-2-yl)methoxy)quinazolin-4-yl)-3,8-diazabicyclo[3.2.1]octan-8-yl)-4-(1H-imidazol-1-yl)butan-1-one]"
10 to 100 µM,10 to 100 µM,"Cc1ccc(N)cc1-c1ccc2c(N3C[C@H]4CC[C@@H](C3)N4)nc(OC[C@@H]3CCCN3C)nc2c1 [P-0152, 3-(4-((1R,5S)-3,8-diazabicyclo[3.2.1]octan-3-yl)-2-(((S)-1-methylpyrrolidin-2-yl)methoxy)quinazolin-7-yl)-4-methylaniline]"
10 to 100 µM,100 to 1000 µM,"Cc1cccc2c1N(c1ccc3c(N4C[C@H]5CC[C@@H](C4)N5)nc(OC[C@@H]4CCCN4C)nc3c1)CC(O)C2 (stereo partly drawn) [P-0406, 1-(4-((1R,5S)-3,8-diazabicyclo[3.2.1]octan-3-yl)-2-(((S)-1-methylpyrrolidin-2-yl)methoxy)quinazolin-7-yl)-8-methyl-1,2,3,4-tetrahydroquinolin-3-ol]"
0.0001 to 10 µM,10 to 100 µM,"Cc1ccc2[nH]ncc2c1-c1ccc2c(N3C[C@H]4CC[C@@H](C3)N4)nc(OCC34CCCN3CCC4)nc2c1F [P-0101, 4-((1R,5S)-3,8-diazabicyclo[3.2.1]octan-3-yl)-8-fluoro-7-(5-methyl-1H-indazol-4-yl)-2-((tetrahydro-1H-pyrrolizin-7a(5H)-yl)methoxy)quinazoline]"
10 to 100 µM,10 to 100 µM,"CN1CCC[C@H]1COc1nc(N2[C@@H]3CC[C@H]2CN(C(=O)Cc2n[nH]c4ccccc24)C3)c2ccc(-c3cc(O)cc4ccccc34)cc2n1 [P-0312, 1-((1R,5S)-8-(7-(3-hydroxynaphthalen-1-yl)-2-(((S)-1-methylpyrrolidin-2-yl)methoxy)quinazolin-4-yl)-3,8-diazabicyclo[3.2.1]octan-3-yl)-2-(1H-indazol-3-yl)ethan-1-one]"
0.0001 to 10 µM,10 to 100 µM,"CN1CC[C@@H](NC(=O)N2[C@H]3CC[C@@H]2CN(c2nc(OC[C@@H]4CCCN4C)nc4c(F)c(-c5cc(O)cc6ccccc56)ccc24)CC3)C1 [P-0246, (1R,6S)-3-(8-fluoro-7-(3-hydroxynaphthalen-1-yl)-2-(((S)-1-methylpyrrolidin-2-yl)methoxy)quinazolin-4-yl)-N-((R)-1-methylpyrrolidin-3-yl)-3,9-diazabicyclo[4.2.1]nonane-9-carboxamide]"
0.0001 to 10 µM,10 to 100 µM,"Oc1cc(-c2ccc3c(N4[C@@H]5CC[C@H]4CNC5)nc(CCc4ccccn4)nc3c2)c2ccccc2c1 [P-0232, 4-(4-((1R,5S)-3,8-diazabicyclo[3.2.1]octan-8-yl)-2-(2-(pyridin-2-yl)ethyl)quinazolin-7-yl)naphthalen-2-ol]"
0.0001 to 10 µM,0.0001 to 10 µM,"CS(=O)(=O)CC(=O)N1[C@@H]2CC[C@H]1CN(c1nc(OCC34CCCN3CCC4)nc3c(F)c(-c4cc(O)cc5ccccc45)ccc13)C2 [P-0432, 1-((1R,5S)-3-(8-fluoro-7-(3-hydroxynaphthalen-1-yl)-2-((tetrahydro-1H-pyrrolizin-7a(5H)-yl)methoxy)quinazolin-4-yl)-3,8-diazabicyclo[3.2.1]octan-8-yl)-2-(methylsulfonyl)ethan-1-one]"
10 to 100 µM,100 to 1000 µM,"CN1CCC[C@H]1COc1nc(N2C[C@H]3CC[C@@H](C2)N3C2CNC2)c2ccc(-c3cc(O)cc4ccccc34)c(F)c2n1 [P-0430, 4-(4-((1R,5S)-8-(azetidin-3-yl)-3,8-diazabicyclo[3.2.1]octan-3-yl)-8-fluoro-2-(((S)-1-methylpyrrolidin-2-yl)methoxy)quinazolin-7-yl)naphthalen-2-ol]"

# Source: patent US20230081426A1, “COMPOUNDS AND METHODS FOR KRAS MODULATION AND INDICATIONS THEREFOR” (Plexxikon Inc., priority 2020, published 2023)
